Test results as given in the METLIN SMRT retention time set (Domingo-Almenara et al. 2019).

Assay: gradient 5% acetonitrile 3 min, to 50% in 2 min, to 85% in 15 min, held 3 min, 100 µL/min
Conditions: column: Zorbax Extend-C18 2.1 x 50 mm; eluents: water / acetonitrile, 0.1% formic acid
How it was run: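 The system's dead and dwell volumes were 40 μL and 900 μL, with a Zorbax Extend-C18 column (2.1 × 50 mm, 1.8 μm) run at 100 μL/min in water and acetonitrile containing 0.1% formic acid each. Pure standards were analyzed in mixtures of ~100 molecules by HPLC–quadrupole time-of-flight mass spectrometry in positive and negative ionization mode. Retention time was assigned from computationally picked, manually inspected adduct peaks.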

| SMILES | RP-LC retention time [s] |
| --- | --- |
| COC(=O)c1c(C)[nH]c(C(=O)N2CCCC(C(=O)NCc3ccccn3)C2)c1C (stereo not drawn) | 577 |
| Cc1cc(C)cc(NC(=O)C2CCN(c3nccnc3Sc3cccc(C)c3)CC2)c1 | 1150 |
| CC1=C(c2ccc(Cl)cc2)S(=O)(=O)N=C1N1CCCN(C(=O)c2ccoc2)CC1 | 825 |
| CC1CCCCN1Cc1nc(-c2ccc(N3CCSCC3)nc2)no1 (stereo not drawn) | 642 |
| Cc1ccc(NC(=O)N2CCC(n3cnc4ccc(F)cc4c3=O)CC2)cc1F | 842 |
| COc1cccc(NC(=O)Cn2c(C(F)(F)F)nc3cc4c(cc32)OCCO4)c1 | 841 |
| CCCN1C(=O)c2ccccc2C(C(=O)NC2CC2)C1c1cc(OC)c(OC)c(OC)c1 (stereo not drawn) | 696 |
| CCn1cccc1-c1nc(C)c(C(=O)N2CCN(c3cccc(C)c3)C(C)C2)s1 (stereo not drawn) | 1190 |
| CCn1c(N)c(C(=O)NC)c(=O)c2ccc(C#C[C@@](C)(O)COC)nc21 | 698 |
| COc1ccc(N2CCN(c3nc(C(=O)N4CCN(CC(C)C)CC4)cs3)CC2)cc1 | 648 |
| COC(=O)c1c(NCC2CC2)c2cccc(Cl)c2[nH]c1=O | 757 |
| Cc1nnc(SCC(=O)c2ccc3c(c2)OCCO3)s1 | 746 |
| Cc1nnc(C2CC3(CCN(CCO)CC3)CN2Cc2ccccc2)o1 (stereo not drawn) | 565 |
| CCOC(=O)c1cc(S(=O)(=O)N2CCCC2C(=O)Nc2cc(C)cc(C)c2)cn1C (stereo not drawn) | 1020 |
| CN(C)CCCNC(=O)C1CCCN(c2cnc3nccnc3c2)C1 (stereo not drawn) | 562 |
| CCSCC[C@@H](NC(=O)CCc1c(C)c2ccc(O)c(C)c2oc1=O)C(=O)O | 680 |
| CCOc1nccnc1N1CCC(NC(=O)Cc2cccs2)C1 (stereo not drawn) | 921 |
| CCCNC(=O)NC1CCN(c2nc3cccnc3n(Cc3ccc(C)cc3)c2=O)CC1 | 1010 |
| CC1CCCCN1CCCNC(=O)CCCn1c(=O)c2cccn2c2ccc(F)cc21 (stereo not drawn) | 639 |

| SMILES | RP-LC retention time [s] |
| --- | --- |
| O=C(NC1CCS(=O)(=O)C1)C1CCN(S(=O)(=O)c2cccs2)CC1 (stereo not drawn) | 616 |
| CCC1c2nccn2CCCN1C(=O)CCc1c(C)noc1C (stereo not drawn) | 623 |
| Cc1nnc(-n2cccc2)s1 | 733 |
| CCN1CCn2cc(C(=O)NCc3ccc(SC)cc3)nc2C1 | 596 |
| CC(C)CC(=O)N1CCc2c(c(-c3nncn3C(C)C)nn2C)C1 | 682 |
| Cc1c(C(=O)N2CCN(Cc3nc(C(C)(C)C)cs3)CC2)cccc1[N+](=O)[O-] | 740 |
| CC1=C(c2ccc(C)c(C)c2)S(=O)(=O)N=C1N1CCCN(C(=O)C2CC2)CC1 | 793 |
| COc1ccc(NC(=O)N2CC=C(c3cn(C(C)C)c4ncccc34)CC2)cc1OC | 826 |
| O=C(C1CCN(c2ccc3nncn3n2)CC1)N1CCN(c2ncccn2)CC1 | 604 |
| CCOC(=O)c1noc2ncnc(Nc3ccc(OC)cc3)c12 | 717 |
| CCCn1nc(CNC(=O)Cc2ccsc2)c2ccccc21 | 847 |
| COCCNC(=O)NCCC1CCN(S(=O)(=O)c2ccc(C)cc2)CC1 | 686 |
| CCOC(=O)C1=C(CNc2ccc(C)c(Cl)c2)NC(=O)NC1c1ccc2c(c1)OCO2 (stereo not drawn) | 897 |
| CC(C)c1ccc(S(=O)(=O)N2C[C@@H](F)C[C@H]2C(=O)N2CCCCC2)cc1 | 930 |
| Nc1ccc2c(c1)N=[N+]([O-])c1cc(N)ccc1C2 | 628 |
| CC(C)c1cccc(NC(=O)Cn2ncc3c(N4CCN(c5ccccn5)CC4)ncnc32)c1 | 570 |
| CCn1c(=O)sc2cc(S(=O)(=O)N3CCC(C(=O)NCc4cccc(C)c4)CC3)ccc21 | 932 |
| Cc1ccc(NC(=O)C2CCCN2S(=O)(=O)c2ccc3c(c2)CCCC(=O)N3)cc1C (stereo not drawn) | 818 |
| CCCC(C)NC(=O)c1ccc(Cl)c(Cl)c1 (stereo not drawn) | 1130 |

| SMILES | RP-LC retention time [s] |
| --- | --- |
| Cc1cc(C(=O)N2CCN(c3cccc(Cl)c3)CC2)n(-c2ccccc2)n1 | 1070 |
| O=S(=O)(c1ccccc1Cl)N1CCCC1Cc1noc(-c2ccccc2)n1 (stereo not drawn) | 1110 |
| O=C(CCC1CCCC1)NCCC1CCN(C(=O)Nc2ccc(F)cc2F)CC1 | 880 |
| CCOCC(=O)N1CC(c2nc(-c3ccc(F)cc3)no2)C2(CCOCC2)C1 (stereo not drawn) | 771 |
| CCCCn1cnc2c(-c3ccccc3)cn(CC(=O)NCc3ccco3)c2c1=O | 922 |
| C=CCN1C(=O)COc2ccc(-c3csc(NC(=O)c4ccco4)n3)cc21 | 882 |
| CCNC(=O)N(CCOC)CC(=O)N1CCc2sccc2C1COc1ccccc1 (stereo not drawn) | 815 |
| Cc1cc(Br)ccc1NC(=O)C(=O)Nc1ccc2nc3n(c(=O)c2c1)CCCCC3 | 990 |
| Cc1ccc(C)c(CNC(=O)CCNc2cnc3cnccn23)c1 | 605 |
| Cc1cccc(NC(=O)C(=O)NCCc2cccs2)n1 | 788 |
| O=C(c1ccc2ccccc2n1)N1CCN(C(=O)N2C[C@H]3C[C@H](C2)[C@H]2CCCC(=O)N2C3)CC1 | 650 |
| COc1cc(-c2nnc(-c3cccc(S(=O)(=O)N4CCC(C)CC4)c3)o2)cc(OC)c1OC | 755 |
| Cc1c(C(=O)NC2CC2)cnn1-c1ccc(-c2nc(C(C)C)no2)cn1 | 849 |
| Cc1nn(-c2ccccc2)c2c1N(CCCC(=O)N1CCOCC1)C(=O)CS2 | 694 |
| Cc1ccc(Cl)cc1NC(=O)C1CCN(S(=O)(=O)c2cc3c(cc2C)NC(=O)CO3)CC1 | 863 |
| COc1ccc(-c2nc(-c3cn(Cc4cccc(F)c4)nn3)no2)c(OC)c1 | 934 |
| CN(C)CCNC(=O)C1CCN(c2cnc(N3CCSCC3)nc2)CC1 | 580 |
| CSc1ccccc1NC(=O)C(=O)NCC1CCN(Cc2ccco2)CC1 | 579 |

The next lines start with the values.

| RP-LC retention time [s] | SMILES |
| --- | --- |
| 1190 | CCn1c(=O)c(C)nc2cc(-c3noc(-c4cccc(C)c4)n3)ccc21 |
| 788 | COCCCNC(=O)C1COc2ccc(NC(=O)c3ccc(Br)cc3)cc2C1 (stereo not drawn) |
| 590 | CCn1c(C)c(C(C)=O)c2cc(OCC(O)CNC(C)c3ccccc3)ccc21 (stereo not drawn) |
| 1390 | Cc1ccc(-c2noc(CN3C(=O)COc4ccc(C(C)(C)C)cc43)n2)cc1C |
| 710 | Cc1ccc(NC(=O)Nc2ccc3nnc(C)n3c2)cc1F |
| 801 | O=[N+]([O-])c1cccc(S(=O)(=O)Nc2ccc(O)c(-c3c(O)ccc4ccccc34)c2)c1 |
| 1120 | COc1ccc(CN2C=C(C(=O)OCc3ccccc3OC)C(C)=NS2(=O)=O)cc1 |
| 1050 | Cc1ccc(-c2ncc(C(=O)NCCC3=CCCCC3)c(-c3ccncc3)n2)cc1 |
| 1310 | CCCN(C(=O)Cc1ccc(OC)c(OC)c1)c1nc(-c2ccc(C)cc2)cs1 |
| 789 | Cc1ccc(CNc2c(-c3ccc(F)cc3)nc3ncccn23)cc1 |
| 714 | CCc1nn2c(CNC(=O)c3ccc(C(F)(F)F)cc3)c(C)nc2s1 |
| 715 | CC(C)(C)c1noc(-c2ccnc(-n3cnc(C(=O)NCc4ccccc4)c3)c2)n1 |
| 1080 | CC(C)CC(=O)Nc1ccc(S(=O)(=O)N2CCCC2c2nc(-c3ccc(F)cc3)no2)cc1 (stereo not drawn) |
| 830 | COc1ccc(-c2ccc(=O)n(CCCNS(=O)(=O)/C=C/c3ccccc3)n2)cc1 |
| 965 | O=C(Nc1ccc(F)cc1)N1CCCC1c1nc(-c2cccc(F)c2)no1 (stereo not drawn) |
| 972 | CCOc1ccc(C(=O)Nc2ccc3c(c2)Sc2ncccc2C(=O)N3C(C)C)cc1 |

| RP-LC retention time [s] | SMILES |
| --- | --- |
| 1310 | Cc1ccc(-c2csc(NC(=O)Cc3csc(COc4ccc(Cl)c(C)c4)n3)n2)cc1 |
| 980 | CCOc1ccc(-n2ccnc(NC(=O)Nc3cccc(OC)c3)c2=O)cc1 |
| 735 | Cc1ccn2c(NC(=O)c3cc(Br)ccc3Cl)c(-c3ccccc3)nc2c1 |
| 776 | COc1ccc(NC(=O)c2cccn2Cc2noc(C)n2)cc1 |
| 1150 | CCN(CC)C(=O)Cn1nc(-c2nc(-c3ccc(C)cc3)no2)c2ccccc21 |
| 1160 | COc1ccc(NC(=O)Cc2c(C)nn(-c3nc(-c4ccccc4)cs3)c2C)c(OC)c1 |
| 1220 | O=S(=O)(c1ccccc1-c1nc(-c2ccccc2)no1)N1CCN(c2ccccc2)CC1 |
| 567 | COc1cc(=O)n2c(c1C(=O)Nc1ccc(N(C)C)cc1)CCCC2 |
| 847 | Cc1ccc(CN2CCN(C3CCN(S(=O)(=O)c4ccccc4Cl)CC3)C(=O)C2=O)cc1 |
| 656 | CCOc1ccc(-c2nc(CN3CCN(C(=O)NC(C)C)CC3)c(C)o2)cc1 |
| 750 | O=C(Nc1cccc(-c2ccc(N3CCOCC3)nn2)c1)Nc1ccccc1C(F)(F)F |
| 566 | Cn1cc(-c2cc3n(n2)CCC(=O)N3CC(=O)NCc2cccnc2)c2ccccc21 |
| 851 | CCOc1ccc(NS(=O)(=O)c2cc(C(=O)Nc3ccc(F)cc3)n[nH]2)cc1 |
| 677 | CC(C)NC(=O)c1ccc(-c2nc3cc(NS(=O)(=O)Cc4ccccc4F)ccc3n2C)cc1 |
| 740 | Cc1ccc(NC(=O)N2CCC(n3c(-c4ccoc4)nc4cccnc43)C2)cc1 (stereo not drawn) |
| 929 | CCN1C(=O)c2ccccc2Oc2ccc(C(=O)NC(C)Cc3ccco3)cc21 (stereo not drawn) |
